Measurements taken from ChEMBL document CHEMBL1201862, “PubChem BioAssay data set” (2004).
Activity calls are given as the source filed them.

Assays:
[1] = intracellular Trypanosoma cruzi inhibitors in host cells – cell-based, plate reader, cherry-pick samples, set 3, dose response (AID 651818); type: functional;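 note: compounds incubated with infected cells for about four days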
P388/ADR = assay: cells; type: functional; conditions: Mus musculus
P388 = assay: cells; type: functional; conditions: Mus musculus, P388
SN12K1 = assay: cells; type: functional; conditions: Homo sapiens, SN12K1
Protein skinhead-1 = molecular target: T1, Protein skinhead-1 (Caenorhabditis elegans, UniProt P34707); type: functional
T1 sequence (P34707 whole entry): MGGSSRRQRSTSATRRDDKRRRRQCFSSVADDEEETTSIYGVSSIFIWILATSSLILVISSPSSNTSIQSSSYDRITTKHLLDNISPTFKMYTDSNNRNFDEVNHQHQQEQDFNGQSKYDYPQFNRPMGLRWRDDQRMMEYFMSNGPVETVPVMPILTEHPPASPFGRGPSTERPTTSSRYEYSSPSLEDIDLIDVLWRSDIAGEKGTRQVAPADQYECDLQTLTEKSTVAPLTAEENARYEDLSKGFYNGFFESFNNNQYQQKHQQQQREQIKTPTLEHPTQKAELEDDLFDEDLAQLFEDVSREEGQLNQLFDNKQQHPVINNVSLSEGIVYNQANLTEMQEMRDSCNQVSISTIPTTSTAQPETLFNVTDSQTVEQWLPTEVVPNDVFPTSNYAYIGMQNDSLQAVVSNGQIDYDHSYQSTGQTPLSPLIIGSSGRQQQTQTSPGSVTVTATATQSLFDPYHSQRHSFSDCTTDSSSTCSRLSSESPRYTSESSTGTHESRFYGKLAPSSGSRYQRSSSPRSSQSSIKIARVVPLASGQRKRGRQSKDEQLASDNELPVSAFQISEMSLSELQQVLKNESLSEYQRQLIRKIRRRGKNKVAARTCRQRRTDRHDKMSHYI

[2] = molecular target: T2, Heat shock factor protein 1 (Mus musculus, UniProt P38532); assay: decrease of HSF1-responsive luciferase luminescence – cell-based, NIH3T3, dose retest, confirmation (AID 2382); type: functional;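 note: NIH3T3 fibroblasts with HSF1-driven luciferase reporter stressed by proteasome inhibitor MG132; luminescence from HSF1-driven luciferase expression after 8 hours of MG132 stress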
T2 sequence (P38532 whole entry): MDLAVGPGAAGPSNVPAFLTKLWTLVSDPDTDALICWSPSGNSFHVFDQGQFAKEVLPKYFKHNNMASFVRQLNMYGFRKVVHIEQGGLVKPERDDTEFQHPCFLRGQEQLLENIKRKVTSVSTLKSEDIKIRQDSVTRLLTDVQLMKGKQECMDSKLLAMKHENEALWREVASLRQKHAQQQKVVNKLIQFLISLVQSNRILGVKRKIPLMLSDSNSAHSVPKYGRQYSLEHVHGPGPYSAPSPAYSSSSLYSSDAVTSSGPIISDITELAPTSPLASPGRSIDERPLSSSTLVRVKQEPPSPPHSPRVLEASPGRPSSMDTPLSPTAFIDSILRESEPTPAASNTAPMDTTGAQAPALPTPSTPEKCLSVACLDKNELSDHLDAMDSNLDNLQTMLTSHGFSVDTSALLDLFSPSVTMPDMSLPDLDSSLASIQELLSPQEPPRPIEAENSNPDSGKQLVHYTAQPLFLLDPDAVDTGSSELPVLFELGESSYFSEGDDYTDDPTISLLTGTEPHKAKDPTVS

[3] = blockers of bursicon-stimulated LGR2 cAMP reporter – cell-based, HEK293, CRE-luciferase reporter, cherry pick, set 2, dose response (AID 743343); type: functional;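 note: transfected cells were stimulated with diluted bursicon conditioned medium after compound addition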
[4] = alpha-synuclein stem-loop luciferase translation blockers – H4 neuroglioma cells, luminescence, confirmation (AID 1988); type: functional, cell-based
[5] = A549 cell cytotoxicity, dose response, cytotoxicity control, plate reader, cherry-pick, antagonist series (AID 743412); type: functional, cell-based
[6] = blockade of melanocortin 4 receptor signaling – cell-based, plate reader, cherry pick, counter-screen for LGR2 antagonist project, dose response (AID 743444); type: functional;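 note: transfected HEK 293 cells stimulated with alpha-MSH peptide; potency of inhibitors of the alpha-MSH evoked signal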
[7] = Luminescence Cell-Based Dose Response HTS to Identify Inhibitors of 5'UTR Stem-Loop Driven Prion Protein mRNA Translation in H4 Neuroglioblastoma Cells. [Related pubchem assays: 1827 (Project Summary), 1813 (Primary HTS)]; type: functional
[8] = luciferase reporter signal suppression in cells – H4 neuroglioma cells, luminescence, dose response (AID 1990); type: functional, cell-based
H9c2 = assay: cells; type: functional, cell-based; conditions: Rattus norvegicus, H9c2, Myocardium;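 note: confirmatory concentration-response retest of ultra-high-throughput screening hits for modulation of myocardial damage; cell death induced by hydrogen peroxide oxidative stress; compound pretreatment for 60 min then peroxide exposure for 2 h; potency is for protecting the cells against peroxide damage rather than for killing them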
H4 = assay: Luminescence Cell-Based Dose Response HTS to Identify Activators of 5'UTR Stem-Loop Driven Prion Protein mRNA Translation in H4 Neuroglioblastoma Cells. [Related pubchem assays: 1829 (Project Summary), 1814 (Primary HTS)]; type: functional; conditions: Homo sapiens
[9] = Luminescence Cell-Based Dose Confirmation HTS to Identify Activators of 5'UTR Stem-Loop Driven Alpha-Synuclein mRNA Translation in H4 Neuroglioblastoma Cells. [Related pubchem assays: 1829 (Project Summary), 1814 (Primary HTS)]; type: functional
[10] = Luminescence Cell-Based Dose Response HTS to Identify Activators of Luciferase Translation or Activity in H4 […] Cells. [Related pubchem assays: 1829 (Project Summary), 1814 (Primary HTS)]; type: functional
[11] = molecular target: Glyceraldehyde-3-phosphate dehydrogenase (Homo sapiens, UniProt P04406)
Chain of Glyceraldehyde-3-phosphate dehydrogenase (P04406 whole entry): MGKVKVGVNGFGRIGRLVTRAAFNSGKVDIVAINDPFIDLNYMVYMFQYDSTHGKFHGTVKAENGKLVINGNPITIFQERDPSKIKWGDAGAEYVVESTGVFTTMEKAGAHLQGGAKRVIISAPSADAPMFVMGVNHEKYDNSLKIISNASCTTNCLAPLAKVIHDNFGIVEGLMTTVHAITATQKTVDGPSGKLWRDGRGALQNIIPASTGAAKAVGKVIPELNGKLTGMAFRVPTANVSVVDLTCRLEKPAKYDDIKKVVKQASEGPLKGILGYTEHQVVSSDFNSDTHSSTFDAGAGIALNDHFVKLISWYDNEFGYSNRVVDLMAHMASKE

[12] = molecular target: T3, Short transient receptor potential channel 4 (Mus musculus, UniProt Q9QUQ5); assay: calcium entry via TRPC4 opening agents – cell-based, HEK293 TRPC4/mu-opioid, Fluo-4 calcium, dose response (AID 434937); type: functional
T3 sequence (Q9QUQ5 whole entry): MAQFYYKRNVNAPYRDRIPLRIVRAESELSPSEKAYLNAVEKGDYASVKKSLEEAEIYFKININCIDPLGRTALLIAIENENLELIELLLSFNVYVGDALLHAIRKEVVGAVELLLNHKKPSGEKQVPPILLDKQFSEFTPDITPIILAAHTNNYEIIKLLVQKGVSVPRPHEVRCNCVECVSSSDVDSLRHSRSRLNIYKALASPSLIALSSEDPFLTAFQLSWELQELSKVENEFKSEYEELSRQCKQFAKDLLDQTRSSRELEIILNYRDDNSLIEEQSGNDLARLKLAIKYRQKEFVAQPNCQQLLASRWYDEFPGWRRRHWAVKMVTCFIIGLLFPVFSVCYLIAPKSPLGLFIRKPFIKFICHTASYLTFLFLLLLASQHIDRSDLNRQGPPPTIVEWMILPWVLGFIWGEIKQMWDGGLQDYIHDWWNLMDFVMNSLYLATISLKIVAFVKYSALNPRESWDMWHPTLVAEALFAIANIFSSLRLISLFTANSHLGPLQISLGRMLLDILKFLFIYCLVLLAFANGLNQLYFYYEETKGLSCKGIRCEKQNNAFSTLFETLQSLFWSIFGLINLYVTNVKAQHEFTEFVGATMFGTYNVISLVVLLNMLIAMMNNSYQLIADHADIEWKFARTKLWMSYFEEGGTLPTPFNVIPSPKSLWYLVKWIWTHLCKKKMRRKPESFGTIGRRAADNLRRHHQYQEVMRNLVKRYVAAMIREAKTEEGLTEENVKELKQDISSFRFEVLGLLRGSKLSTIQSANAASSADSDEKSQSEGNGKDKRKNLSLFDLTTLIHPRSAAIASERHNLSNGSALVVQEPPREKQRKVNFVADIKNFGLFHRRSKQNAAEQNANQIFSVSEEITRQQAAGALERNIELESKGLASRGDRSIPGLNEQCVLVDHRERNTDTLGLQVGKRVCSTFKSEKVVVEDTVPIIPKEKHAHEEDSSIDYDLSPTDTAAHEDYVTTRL

[13] = Luminescence Cell-Based Dose Confirmation HTS to Identify Inhibitors of Platelet Dense Granule Release. [Related pubchem assays: 1663 (Primary HTS), 1678 (Summary of Project)]; type: functional
[14] = molecular target: Luciferin 4-monooxygenase (Photinus pyralis, UniProt P08659); assay: inhibition of purified Photinus pyralis luciferase – biochemical, luminescence, dose response (AID 1891)
Chain of Luciferin 4-monooxygenase (P08659 whole entry): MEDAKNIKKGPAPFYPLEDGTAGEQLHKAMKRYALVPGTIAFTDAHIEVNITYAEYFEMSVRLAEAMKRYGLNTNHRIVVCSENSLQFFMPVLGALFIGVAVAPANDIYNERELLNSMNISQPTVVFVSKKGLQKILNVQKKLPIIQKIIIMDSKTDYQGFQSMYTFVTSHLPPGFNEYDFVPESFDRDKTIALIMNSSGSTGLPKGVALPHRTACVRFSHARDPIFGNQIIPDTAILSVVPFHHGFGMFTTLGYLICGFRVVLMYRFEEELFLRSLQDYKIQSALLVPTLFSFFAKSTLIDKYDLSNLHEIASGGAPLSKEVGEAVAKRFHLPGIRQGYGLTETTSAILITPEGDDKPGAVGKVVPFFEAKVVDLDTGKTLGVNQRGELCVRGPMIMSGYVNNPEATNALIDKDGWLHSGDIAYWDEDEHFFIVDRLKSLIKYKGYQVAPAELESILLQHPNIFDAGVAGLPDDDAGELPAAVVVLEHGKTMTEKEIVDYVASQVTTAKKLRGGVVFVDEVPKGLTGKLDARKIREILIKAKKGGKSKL

C[C@@H]1CCCCO[C@H](CN(C)Cc2ccc3c(c2)OCO3)[C@@H](C)CN([C@H](C)CO)C(=O)c2cc(NC(=O)Nc3ccc(C(F)(F)F)cc3)ccc2O1
AC50 [1]: 2.16 µM (active)

CN(C)C(=O)/C=C/c1c[nH]c(=O)[nH]c1=O
GI50 (P388/ADR): > 281 µM (inactive) | GI50 (P388): > 281 µM (inactive) | GI50 (SN12K1): > 500 µM (inactive)

C[C@@H]1CN([C@H](C)CO)C(=O)c2cccc(NS(=O)(=O)c3ccc(Cl)cc3)c2O[C@H]1CN(C)Cc1ccc(C(=O)Nc2ccccc2N)cc1
AC50 [1]: 1.77 µM (active)

COc1ccc(S(=O)(=O)N2CC(C(=O)O)Oc3ccccc32)cc1 (configuration not stated)
IC50 (Protein skinhead-1): > 100 µM (inactive)

C[C@H](CO)N1C[C@H](C)[C@@H](CN(C)S(=O)(=O)c2ccc(Cl)cc2)Oc2c(cccc2N(C)C)C1=O
AC50 [1]: 10.1 µM (active)

C[C@@H]1CN([C@@H](C)CO)C(=O)c2cccc(NC(=O)c3ccc(-c4nccs4)cc3)c2O[C@@H]1CN(C)Cc1ccc(C(=O)Nc2ccccc2N)cc1
AC50 [1]: 1.61 µM (active)

Nc1ccc(/N=N/c2ccc(/C=C/c3ccc(/N=N/c4ccc(N)c5ccc(S(=O)(=O)O)cc45)cc3S(=O)(=O)O)c(S(=O)(=O)O)c2)c2cc(S(=O)(=O)O)ccc12
GI50 (P388/ADR): > 100 µM (inactive) | GI50 (P388): > 100 µM (inactive) | GI50 (SN12K1): > 100 µM (inactive)

COc1cccc2c1C(=O)c1c(O)c3c(c(O)c1C2=O)CC(O)(C(C)=O)CC3O (configuration not stated)
GI50 (P388/ADR): 1.81 µM (inactive) | GI50 (P388): 1.09 µM (active) | GI50 (SN12K1): 2.07 µM (inactive)

CN(C)CC(CC1=C(CC(CN(C)C)N(C)C)CCC1)N(C)C (configuration not stated)
GI50 (P388/ADR): > 100 µM (inactive) | GI50 (P388): > 100 µM (inactive) | GI50 (SN12K1): > 100 µM (inactive)

COc1ccc(NC(=O)Nc2ccc3c(c2)C(=O)N([C@@H](C)CO)C[C@H](C)[C@@H](CN(C)Cc2ccc(-c4ccccc4)cc2)O3)cc1
AC50 [1]: 5.13 µM (active)

CN1CCN(c2ccc(NC(=O)N3CCc4ccccc43)cc2)CC1
EC50 [2]: < 0.16 µM (active) | AC50 [3]: 2.2 µM (active) | EC50 [4]: > 120 µM (not active) | AC50 [5]: > 52 µM (inactive) | AC50 [6]: 4.38 µM (active) | EC50 [7]: 9.49 µM (active) | EC50 [8]: 6.81 µM (inconclusive)

O=C(NCCc1ccccc1Cl)c1ccc2nc3ccccc3c(=O)n2c1
IC50 (H9c2): > 79 µM (inactive) | EC50 (H4): > 120 µM (not active) | EC50 [9]: 10.2 µM (active) | EC50 [10]: > 120 µM (not active)

C=C1C(=O)OCC2C(C(=O)O)=CC3C(C)C(C)=CC123 (configuration not stated)
GI50 (P388/ADR): 5.77 µM (inactive) | GI50 (P388): 5.21 µM (inactive) | GI50 (SN12K1): 9.08 µM (inactive)

CCOc1ccc(S(=O)(=O)Nc2ccc(O)c(C(=O)O)c2)cc1
IC50 [11]: > 100 µM (not active)

CCC1CCCCN1S(=O)(=O)c1ccc(C(=O)N(CCCN(C)C)c2nc3cc4c(cc3s2)OCO4)cc1 (configuration not stated)
EC50 [12]: 6.68 µM (active)

N=C(Nc1ccccc1)Nc1ccccc1
EC50 [12]: 10.6 µM (active)

COc1ccccc1N1CCN(C(c2cccs2)C(C)NC(=O)c2cccs2)CC1 (configuration not stated)
EC50 [12]: 0.335 µM (active)

COc1ccc(CN(C(=O)c2oc3ccccc3c2C)C2CCS(=O)(=O)C2)cc1 (configuration not stated)
IC50 (Protein skinhead-1): > 100 µM (inactive)

C[C@H]1CN([C@@H](C)CO)C(=O)Cc2cc(NS(=O)(=O)c3ccccc3)ccc2O[C@@H]1CN(C)Cc1ccc(-c2ccccc2)cc1
AC50 [1]: 5.32 µM (active)

CC(=O)c1ccc2c(c1)c1c(C)c3c[n+](C)ccc3c(C)c1n2C
GI50 (P388/ADR): 3 µM (inactive) | GI50 (P388): 0.634 µM (active) | GI50 (SN12K1): 1.34 µM (inactive)

Fc1ccc(-c2csc(N3CCSCC3)n2)cc1
IC50 (Protein skinhead-1): > 100 µM (inactive)

Cc1cc(C(=O)CSc2nnc(C3COc4ccccc4O3)n2C)c(C)n1-c1ccc(F)cc1 (configuration not stated)
IC50 (Protein skinhead-1): > 100 µM (inactive)

O=C(N/N=C/c1ccco1)C1COc2ccccc2O1 (configuration not stated)
EC50 [12]: 4.22 µM (active)

Cc1cc(C)c(NS(=O)(=O)c2ccc(O)c(C(=O)O)c2)c(C)c1
IC50 [11]: > 100 µM (not active)

Clc1ccc(Cc2noc(-c3cccs3)n2)cc1
IC50 (Protein skinhead-1): 4.34 µM (active)

COc1ccc(CN(C)C[C@H]2Oc3c(NC(=O)Nc4ccc(C(F)(F)F)cc4)cccc3C(=O)N([C@H](C)CO)C[C@@H]2C)cc1
AC50 [1]: 3.26 µM (active)

CC1OC(O[C@@H]2C=C3CC[C@@H]4[C@H](CC[C@]5(C)[C@@H](c6ccc(=O)oc6)CC[C@]45O)[C@@]3(C)CC2)C(O)C(O)C1O (some centres not stated)
GI50 (P388/ADR): 47.1 µM (inactive) | GI50 (P388): 20.7 µM (inactive)

Clc1ccccc1-c1nc(N/N=C/c2cccnc2)c2ccccc2n1
IC50 (H9c2): > 79 µM (inactive) | EC50 [13]: > 112 µM (not active) | EC50 [14]: > 112 µM (not active)
